# Test results published in patent US9175077B2, “Nucleic acids encoding biologically active polypeptides derived from a novel early stage pregnancy factor designated maternin (MA)” (NOBEL BIOSCIENCES LLC, priority 1999, dated 2015).
# Assays:
# [1] = Lethal dose taxol in Sprague-Dawley rats; assay type: in vivo; conditions: for survival of pretreated animals: low dose, two doses 24 and 48 hrs before taxol; for survival maintained to day 80 / survival on day 5: therapy maintained 28 days; for survival on day 5: low or high dose
# Procedure: Sprague-Dawley rats were given taxol in large lethal doses, 4.5 mg in one I.P. inoculation. […] Bone marrow suppression can also be a side effect of the clinical use of taxol.^179 As in the radiation experiments, either MA, pMA, MAS1, or various polypeptide controls were given subcutaneously only in two doses 24 and 48 hrs before taxol treatment or were given 3×/week for 4 weeks. […]
# [2] = Lethally irradiated rats and mice; conditions: treated at time of radiation, 3×/week for 4 weeks
# Procedure: In order to determine in vivo relevance of the prohematopoietic effects of MA treated rats and mice under several conditions of bone marrow suppression. First, the effects of native MA and pMA and of the synthetic 15-mer MAS1 were treated for their capacity to reduce or prevent the effects of lethal doses of gamma irradiation. […] MA, pMA, MAS1, and various control polypeptides were given 48 and 24 hrs before, during, or 24 hrs after radiation. The animals treated prior to radiation received either 100 ng vs. 1 ug (rats) or 50 ng vs. 500 ng (mice) as 2 subcutaneous injections.
# It is not yet possible to determine the precise molar dose of pMA because of less certainty on its full-length sequence.
# To ascertain that the MA effect did promote hematopoiesis in these animals we examined the bone marrow for cellularity and colony formation and determined peripheral blood counts.
# [3] = tested on: human primitive hematopoietic stem cells; test: Long term cultures (LTC-IC, stroma-free) of CD34+, CD38− cells from human BMMC; assay type: cell-based
# Procedure: In the human system, a long-term culture-initiating assay (LTC-IC) can be used to detect cells that can generate myeloid clonogenic cells (CFC/colony forming cells) in long-term cultures for a minimum of 5 weeks. Bone marrow stromal was produced by culturing 107 fresh BM-MNC in a T25 flash for at least 2 weeks in 5 mL stromal medium; 12.5% horse [HS] and 12.5% fetal calf serum [FCS]; both from hyclone [Logan, Utah], Iscove's modified Dulbecco's medium [IMDM, GIBCO-BRL], 2-mercaptoethanol [Sigma, st. Louis, Mo.], 10^−6 mol/L hydrocortisone [Sigma] and penicillin/streptomycine.
# One or 2 days before co-cultures, bone marrow stroma was irradiated with 15Gy and plated at 7×10^3/cm^2 in 24-well plates to form pre-established stromal layers for the long-term cultures. Limiting dilution was 1 to 1000 CD34+ bone marrow/cord blood cells and equivalent aliquots, i.e., limiting dilutions of the cells grown in long-term cultures stroma-free cultures after 2 to 20 weeks were seeded on top of the irradiated bone marrow stroma in culture medium containing IMDM, 12.5% HS, 12.5% FCS, 2-mercptoethanol, and 10^−6 mon-hydrocortisone for 5 weeks LTC-IC assay period. Non-adherent cells were removed from the cultures, combined with the corresponding trypsinized adherent cells, washed and assayed for colony forming units (CFU-Cs) in methylcellulose medium containing 1.3% methylcellulose (Fluka Chemilka Biochemika, buck\hs, Switzerland), 30% FCS, EPO (3 U/ml), IL-3 (20 ng/ml), G-CSF (20 ng/ml), GM-CSF (20 ng/ml) and KL (c-kit, 50 ng/ml). These cultures were incubated at 37° C. and colonies were scored 2 to 3 weeks later. LTC-IC enumeration was based on the number of CFU-C scored in the limiting assays [LDA] and another technique.
# Stroma-free long-term cultures were performed as follows. 2 to 10×10^3 CD34+/CD34^−CD38^− from bone marrow/CB/PBMC cells were cultured in quadrutriplicate flat bottomed 24 well plates in 1 ml to of IMDM supplemented with 10% FCS and the following cytokines: IL-3 (10 ng/ml), IL-6 (10 ng/ml), KL [c-kit 50 ng/ml, FL (50 ng/ml) and TPO (10 U/ml), which added, alone or in combination of two or more factors, to each series of microwells twice a week. The wells were grown at 37° C. and share a number of features with in vivo murine long-term repopulating cells. These include assay for cobblestone areas colony forming cells (CAFC), high proliferative potentials colony-forming cells (HPP-CFC), CFU-GEMM, CFU-B1 (blast colony forming units).
# [4] = tested on: carcinoma of the kidney HTB46; test: Confocal microscopy apoptosis; assay type: cell-based, human; conditions: 200 ng/ml; 24 hrs
# Procedure: (§1) More extensive studies of the effects of MA and with truncated synthetic forms of MA (MAS) on a wide range of other human tumor cells were carried out using three-dimensional confocal microscopy. Cells were cultured and then seeded onto gelatinized glass chamber slides and incubated 24 hrs with the various test materials. The slides were then fixed with formalin and treated serially with Triton X-100 (0.01%) for 10 min at 25°, 0.4 ug/ml fluorescein isothiocyanate (FITC)-labeled Phalloidin (Sigma Chem. Co.) at room temperature for 30 min to bind actin, washed with PBS and the DNA stained with Propidium iodide (PI) (0.5 ug·ml) (Sigma Chemical Co.), for 15 min. The stained slides were washed and mounted on slow fade (Molecular Probes, Inc., Eugene, Oreg.) and examined through a dual emission filter XF53 (Omega, Inc., Brattlesboro, Va.) by fluorescent microscopy. In some experiments only DNA staining was performed. In these instances Triton X-100 was not used. The slides were stained with PI and examined for cell morphology and chromatin degradation under 3D confocal microscopy.
# [5] = tested on: carcinoma of the breast HTB124; test: Confocal microscopy apoptosis; assay type: cell-based, human; conditions: 200 ng/ml; 24 hrs
# Procedure: as §1
# [6] = tested on: prostate carcinoma cell line PC3; test: Confocal microscopy apoptosis; assay type: cell-based, human; conditions: 200 ng/ml; 24 hrs
# Procedure: as §1
# [7] = tested on: gliobastoma HTB16; test: Confocal microscopy apoptosis; assay type: cell-based, human; conditions: 200 ng/ml; 24 hrs
# Procedure: as §1
# [8] = tested on: fibrosarcoma 4TB166; test: Confocal microscopy apoptosis; assay type: cell-based, human; conditions: 200 ng/ml; 24 hrs
# Procedure: as §1
# [9] = tested on: carcinoma of the lung HTB184; test: Confocal microscopy apoptosis; assay type: cell-based, human; conditions: 200 ng/ml; 24 hrs
# Procedure: as §1
# [10] = tested on: KS Y-1 cells; test: Confocal microscopy apoptosis; assay type: cell-based, human; conditions: 200 ng/ml; 24 hrs
# Procedure: as §1
# [11] = tested on: prostate carcinoma cell line PC4; test: Confocal microscopy apoptosis; assay type: cell-based, human; conditions: 200 ng/ml; 24 hrs
# Procedure: as §1
# [12] = tested on: carcinoma of the colon; test: Confocal microscopy apoptosis; assay type: cell-based, human; conditions: 200 ng/ml; 24 hrs
# Procedure: as §1
# [13] = tested on: Ewing's sarcoma; test: Confocal microscopy apoptosis; assay type: cell-based, human; conditions: 200 ng/ml; 24 hrs
# Procedure: as §1
# [14] = tested on: leukemia and lymphoma cell lines: HUT78, DAVDI, HG, SULTAN, T-cell lymphoma; test: Confocal microscopy apoptosis; assay type: cell-based, human; conditions: 200 ng/ml; 24 hrs
# Procedure: as §1
# [15] = tested on: carcinoma of the pancreas CRL 1682; test: Confocal microscopy apoptosis; assay type: cell-based, human; conditions: 200 ng/ml; 24 hrs
# Procedure: as §1
# [16] = tested on: melanoma HTB67; test: Confocal microscopy apoptosis; assay type: cell-based, human; conditions: 200 ng/ml; 24 hrs
# Procedure: as §1
# [17] = Acutely bled rats; assay type: in vivo, Sprague-Dawley rats; conditions: i.p. 24 and 48 hrs after 35-40% blood loss
# Description: To delineate the effects of MA on hematopoiesis in the absence of any external bone marrow suppression, blood (35-40% of total blood volume) was removed from five Sprague-Dawley rats by intracardiac puncture. […] Each panel illustrates the mean values for the three animals treated with MAS1. Thus, MA and related derivatives have potent pro-hematopoietic effects.
# [18] = tested on: primary human tumor cells; test: Short-term cultured primary human tumor cells, growth and apoptosis; assay type: cell-based; conditions: 200 ng/ml; 3 days culture; 10% serum
# Description: Because cell lines might be more susceptible to growth inhibition and apoptosis, the effects of MA on short-term cultured human tumor cells were investigated. The cells were obtained from biopsied specimens and immediately cultured (primary cultures). The results were similar to the results with tumor cell lines. […] FIG. 3, Panels A and B are representative results with primary breast and prostate carcinomas respectively. These pro-apoptotic effects of MA on human tumor cells were with 10% serum rather than the lower concentrations sometimes used to make cells more susceptible to apoptosis.
# More extensive studies of primary human tumor cells were carried out utilizing confocal microscopy.
# With the exception of the kidney carcinoma, which was a biopsy sample direct from the tumor, the samples were from pleural effusions which developed after metastasis to the lung. The breast, prostate, and colon carcinomas were freshly obtained and immediately cultured, whereas the lung and kidney carcinomas went through 22 and 18 passes respectively before they were used in these studies. All cells were examined after 3 days culture in the presence or absence of MA (200 ng/ml) or other treatments. […]
# [19] = tested on: human tumor cells; assay type: cell-based; conditions: controls at equimolar or 5 to 10× greater concentrations
# Procedure: The anti-tumor activities of MA were assessed in several in vitro and in vivo systems using published methods.^166 In vitro studies were with a wide variety of human tumor cell lines as well as short-term cultures of cells from biopsy samples obtained from tumors. The assays included effects of MA on colony formation, cell number and viability (trypan blue), and apoptosis. Four measures of microscopy were used. In vivo studies included the effects of MA on tumors induced in immunodeficient mice by xenotransplanted various human neoplastic cells, spontaneous neoplasms of immuno-competent mice and rats, and a few standard tumors in immuno-competent mice. Representative examples are presented.
# Cells (5×10^5/ml) were seeded in modified Eagle's medium supplemented with 10% FCS, 10% conditioned medium form PHA stimulated human lymphocytes, 2 mM glutamine in 0.8% V/V methylcellulose with or without various treatments in a final volume of 1.0 ml. Then 0.1 ml aliquots were seeded in 96 well flat bottom microtest plates and incubated at 37° C. in 5% CO2 in air for 7 days. Aggregates containing 50 cells or more were scored as colonies.
# 5×10^5 cells were seeded in triplicate on 24 gelatin coated wells in conditions as described for Panel A and treated with the indicated test materials. After 3 days the cells were dislodged from their monolayers by gentle pipetting with cell dissociation buffer (Life Technologies), counted after trypan blue staining and aliquots examined for Annexin V staining by indirect IFA […].
# Studies of the anti-tumor cell effects of MA were extended to other carcinomas, melanoma, some hematopoietic tumors, and carcinomas of the colon, prostate, breast, lung, brain, pancreas, and kidney-using cell lines from these tumors. […] Many more types of tumor cells were studied utilizing other assays (see below).
# [20] = tested on: HIV-1 gene expression; test: HIV-1 transgenic mice, pups feeding from treated mothers; assay type: in vivo
# Description: The transgenic mice contain 5.1 kb of the HIV-1 proviral genome, lacking gag and pol genes and 2.3 kb of vector.^172 The newly developed transgenic rat contains the same HIV-1 sequences and vector.
# Twenty-four hours after birth the mothers were either inoculated subcutaneously daily for 10 days or received an implanted osmotic pump delivering 30-150 pmoles of either native or synthetic MA or pMA. Various control polypeptides were used at equimolar or vast molar excess. The newborn pups were then allowed to feed from the foster mother breast milk over the entire period. Since the animals are at risk from needle inoculation, breastfeeding was the chosen route for MA administration.
# In these experiments total RNA was extracted from samples of skin RNA206 10 days after birth of MA treated and untreated mice. One ug of RNA was reverse transcribed into cDNA using random hexamer primer and […] reverse transcriptase (Life Technologies, Inc.) in a final vol. Of 30 ul. Three ul of each reaction was used for PCR amplification of the HIV-1 gene sequences (env, tat, nef, and rev) as described […], and glyceraldehyde 3-phosphate dehydrogenase (GAPDH) was amplified from each sample for normalization. After 25 cycles, 10% of the products were resolved by electrophoresis on 2% agarose gels, transferred to nitrocellulose membranes by Southern blotting, and hybridized to fluorescein isthiocyanate-labeled oligonucleotide probes complementary to internal sequences of the amplicons […]. Bound probes were detected by chemiluminescence (Amersham) and relative mRNA levels determined by densitrometry after normalization with GAPDH mRNA levels.
substance,measurement,setting,value
VRFESIRLPGCPRGV (listed as Homo sapiens) [MAS1],survival of pretreated animals,[1],Sixty-percent
same,survival maintained to day 80,[1]; high dose (1000 ng),~80%
same,survival maintained to day 80,[1]; low dose (100 ng),about 60%
same,survival on day 5,[1],100%
same,survival,"[2]; higher dose, over 100 days",100%
same,survival,[2]; lowest doses,80%
same,Rx MAS1: % of CD1,[3],35%
same,Rx MAS1: % of CD68,[3],27%
same,induction of apoptosis,[4],induced apoptosis
same,induction of apoptosis,[5],induced apoptosis
same,induction of apoptosis,[6],induced apoptosis
same,induction of apoptosis,[7],induced apoptosis
same,induction of apoptosis,[8],induced apoptosis
same,induction of apoptosis,[9],induced apoptosis
same,induction of apoptosis,[10],induced apoptosis
same,induction of apoptosis,[11],induced apoptosis
same,induction of apoptosis,[12],induced apoptosis
same,induction of apoptosis,[13],induced apoptosis
same,induction of apoptosis,[14],induced apoptosis
same,induction of apoptosis,[15],induced apoptosis
same,induction of apoptosis,[16],induced apoptosis
same,recovery of peripheral blood cells,[17],prompt recovery
"pMA: natural peptide 38 amino acids in length, β-hCG 55-92 (SEQ ID NO: 3) (VVCNYRDVRFESIRLPGCPRGVNPVVSYAVALSCQCAL; listed as Homo sapiens)",survival of pretreated animals,[1],Sixty-percent
same,survival maintained to day 80,[1]; high dose (1000 ng),~80%
same,survival maintained to day 80,[1]; low dose (100 ng),about 60%
same,survival on day 5,[1],100%
same,growth inhibition and apoptosis of primary human tumor cells,[18],effective
same,survival,"[2]; higher dose, over 100 days",100%
same,inhibition of growth / induction of apoptosis of neoplastic cells,[19],induce apoptotic death
same,weight over the ten day period,[20]; 30-150 pmoles,quadrupled their weight
same,survival / development of pups (qualitative),"[20]; mothers treated, pups breast fed",survived
same,HIV-1 viral expression in tissues,"[20]; mouse, in vivo",marked inhibition of viral expression
